Source: patent US20170369928A1, “METHOD FOR EVALUATING DNA DAMAGE FROM ANALYTE” (SOGANG UNIVERSITY RESEARCH FOUNDATION, priority 2016, published 2017)

What was measured:
[1] = system: Escherichia coli; experiment: single molecule DNA damage analysis (visualization of damaged lesions in genomic DNA of agarose-embedded cells); assay type: cell-based, Escherichia coli K-12 MG1655
Experimental: Escherichia coli K-12 MG1655 cells were grown in 5 mL LB broths in a shaking incubator (220 rpm) at 37° C. for six hours. Bacterial cells were harvested by centrifugation (10,000×g, 10 min) and washed twice with 0.85% NaCl solution and re-suspended in the same solution. The cell-suspension was then diluted such that OD600 was approximately between 0.5 and 1 and used for subsequent reactions.
Bacterial suspension (OD600=0.5) was mixed with 2% LGT agarose solution and then dispensed as 20 μL droplets on a surface and solidified in the refrigerator (4° C.) for 10 minutes. […] After incubation, all these plugs were washed in 0.85% NaCl solution for half an hour.
After alcohol treatment, bacteria embedded agarose plugs were subjected to lysis with proteinase K solution (50 units in 500 μL, Tris 10 mM and EDTA 1 mM, pH 8.0 (1×TE)) at 42° C. for 150 min. The plugs were then washed in 1 mL 1×TE overnight. For removing oxidized base adducts, agarose plugs were incubated with a mixture of 10 units Fpg, 10 units Nfo, and 20 units Nei in NEB buffer2 (50 mM NaCl, 10 mM Tris-HCl, 10 mM MgCl2, 1 mM DTT, pH 7.9) at 37° C. for one hour. After enzyme treatment, the plugs were washed twice with 1 mL 1×TE buffer for half-an-hour. The plugs were then incubated with 5 units DNA Polymerase I, 1 mM AlexaFluor-647 labeled dUTP and dNTP mix (1 mM dATP, 1 mM dGTP, 100 μM dCTP, 100 μM dTTP) in the polymerase reaction buffer (50 mM Tris-HCl, 1 mM DTT, 10 mM MgCl2, pH 7.5) at 37° C. for one hour to label gaps or nicks. […] After nick translation, the plugs were washed three times in 1 mL 1×TE buffer for one hour. Then agarose plugs were melted in 400 μL 1×TE buffer at 65° C. for 15 min and stained with 1 μM YOYO-1.
A PDMS device was mounted on the positively charged surface. Then, the solution of DNA molecules melted from low gelling temperature agarose plug was loaded onto the entrance of the microfluidic channels. While the solution moved through the microchannels by capillary action, DNA molecules were elongated and deposited on the positively charged surface.

[2] = system: Escherichia coli; conditions: 30 minutes incubation in ethanol

With `CCO` [ethanol, Ethanol] the “number of DNA lesions corresponding to 17% ethanol” value ([1]; 17% ethanol, 30 minutes, glycosylase mix) was 16.4 lesions/genome, the “DNA length per one lesion at 17% ethanol” value ([1]; 17% ethanol, 30 minutes, glycosylase mix, one lesion per ~300 kb) was roughly 300 kb and the “increase in number of DNA lesions with every 1% increase in ethanol concentration” value ([1]; E. coli embedded agarose plug, 30 minutes incubation, ethanol 5%-40%, glycosylase mix (Fpg, Nfo, Nei), linear fit r^2=0.98) was 0.88 lesions/genome. For the same compound, the “labels per genome, ethanol incubation without glycosylase treatment” value ([1]; without glycosylase treatment (triangles in FIG. 2A), 30 minutes incubation) was 1.1-1.4 labels per genome and the “ethanol concentration above which bacterial cells could not survive” value [2] was “above 17%”.
